From patent publication US6737383B1, “Herbicidal oxadiazolidines” (priority 1999, dated 2004)

How the values were obtained:
giant foxtail = assay: Test B pre/postemergence giant foxtail; format: in vivo, Setaria faberii
Outline: (§1)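 Response is a visual 0-to-10 score relative to untreated plants, where 0 means no effect and 10 means complete control, taken twelve to sixteen days after application. Treatments went onto soil at planting and onto foliage of 1- to 4-leaf plants, using a surfactant-containing non-phytotoxic solvent.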

wheat = assay: Test B pre/postemergence wheat; format: in vivo, Triticum aestivum; settings: for Plant response rating, Wheat: scale of 0 to 10 where 0 is no effect and 10 is complete control
Outline: as §1

morningglory = assay: Test B pre/postemergence morningglory; format: in vivo, Ipomoea hederacea; settings: for Plant response rating, Morningglory: scale of 0 to 10 where 0 is no effect and 10 is complete control
Outline: as §1

rape = assay: Test B pre/postemergence rape; format: in vivo, Brassica napus; settings: for Plant response rating, Rape: scale of 0 to 10 where 0 is no effect and 10 is complete control
Outline: as §1

blackgrass = assay: Test B pre/postemergence blackgrass; format: in vivo, Alopecurus myosuroides
Outline: as §1

wild oat = assay: Test B pre/postemergence wild oat; format: in vivo, Avena fatua; settings: for Plant response rating, Wild oats: scale of 0 to 10 where 0 is no effect and 10 is complete control
Outline: as §1

velvetleaf = assay: Test B pre/postemergence velvetleaf; format: in vivo, Abutilon theophrasti; settings: for Plant response rating, Velvetleaf: scale of 0 to 10 where 0 is no effect and 10 is complete control
Outline: as §1

soybean = assay: Test B pre/postemergence soybean; format: in vivo, Glycine max
Outline: as §1

smallflower flatsedge = assay: Test B flood test smallflower flatsedge; format: in vivo, Cyperus difformis
Outline: (§2)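 Plants were grown to the 2-leaf stage before treatment with test chemical, then held in a greenhouse for twelve to sixteen days. Injury was visually rated against untreated controls on a 0–10 scale, where 0 is no effect and 10 is complete control.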

duck salad = assay: Test B flood test duck salad; format: in vivo, Heteranthera limosa
Outline: as §2

corn = assay: Test B pre/postemergence corn; format: in vivo, Zea mays
Outline: as §1

purple nutsedge = assay: Test B pre/postemergence purple nutsedge; format: in vivo, Cyperus rotundus
Outline: as §1

surinam grass = assay: Test B pre/postemergence surinam grass; format: in vivo, Brachiaria decumbens
Outline: as §1

crabgrass = assay: Test B pre/postemergence crabgrass; format: in vivo, Digitaria sanguinalis
Outline: as §1

cocklebur = assay: Test B pre/postemergence cocklebur; format: in vivo, Xanthium strumarium
Outline: as §1

sugar beet = assay: Test B pre/postemergence sugar beet; format: in vivo, Beta vulgaris; settings: for Plant response rating, Sugarbeets: scale of 0 to 10 where 0 is no effect and 10 is complete control
Outline: as §1

[1] = Postemergence, Rate 250 g/ha, scale 0 to 10
[2] = Postemergence, Rate 500 g/ha, scale of 0 to 10 where 0 is no effect and 10 is complete control
[3] = Preemergence, Rate 62 g/ha, scale of 0 to 10 where 0 is no effect and 10 is complete control
[4] = Preemergence, Rate 125 g/ha, scale of 0 to 10 where 0 is no effect and 10 is complete control
[5] = Preemergence, Rate 250 g/ha, scale 0 to 10, 0 is no effect, 10 is complete control
[6] = Preemergence, Rate 500 g/ha, scale 0 to 10, 0 is no effect, 10 is complete control
[7] = Rate 62 g/ha, Postemergence, scale 0 to 10, 0 no effect, 10 complete control
[8] = Rate 125 g/ha, Postemergence, scale 0 to 10, 0 is no effect, 10 is complete control
[9] = Rate 62 g/ha, flood test species, Pre-emergence, visual evaluation after twelve to sixteen days
[10] = Rate 125 g/ha, under heading Pre-emergence, flood test species, visual evaluation after twelve to sixteen days
[11] = Rate 250 g/ha, Pre-emergence (flood test species), scale 0 to 10, 0 is no effect, 10 is complete control
[12] = Rate 500 g/ha, Pre-emergence, flood test species, scale 0 to 10 (0 no effect, 10 complete control)

SMILES: CC(C)N(C(=O)n1oc(=O)n(COCC[Si](C)(C)C)c1=O)c1ccc(Cl)cc1 [Compound 467]
- Giant foxtail plant response rating (giant foxtail; [1]): 2
- Giant foxtail plant response rating (giant foxtail; [2]): 4
- Plant response rating, Giant foxtail (giant foxtail; [3]): 0
- Plant response rating, Giant foxtail (giant foxtail; [4]): 7
- Giant foxtail plant response rating (giant foxtail; [5]): 9
- Giant foxtail plant response rating (giant foxtail; [6]): 9
- Giant foxtail plant response rating (giant foxtail; [7]): 0
- Giant foxtail plant response rating (giant foxtail; [8]): 0
- Wheat plant response rating (wheat; [1]): 0
- Plant response rating, Wheat (wheat; Preemergence, Rate 62 g/ha): 0
- Plant response rating, Wheat (wheat; Preemergence, Rate 125 g/ha): 0
- Wheat plant response rating (wheat; [5]): 0
- Wheat plant response rating (wheat; [6]): 0
- Wheat plant response rating (wheat; [7]): 0
- Wheat plant response rating (wheat; [8]): 0
- Morningglory plant response rating (morningglory; [1]): 7
- Plant response rating, Morningglory (morningglory; Preemergence, Rate 62 g/ha): 0
- Plant response rating, Morningglory (morningglory; Preemergence, Rate 125 g/ha): 0
- Morningglory plant response rating (morningglory; [5]): 0
- Morningglory plant response rating (morningglory; [6]): 0
- Morningglory plant response rating (morningglory; [7]): 3
- Morningglory plant response rating (morningglory; [8]): 7
- Rape plant response rating (rape; [1]): 4
- Plant response rating, Rape (rape; Preemergence, Rate 62 g/ha): 4
- Plant response rating, Rape (rape; Preemergence, Rate 125 g/ha): 7
- Rape plant response rating (rape; [5]): 7
- Rape plant response rating (rape; [6]): 7
- Rape plant response rating (rape; [7]): 0
- Rape plant response rating (rape; [8]): 0
- Blackgrass plant response rating (blackgrass; [1]): 0
- Blackgrass plant response rating (blackgrass; [2]): 7
- Plant response rating, Blackgrass (blackgrass; [3]): 0
- Plant response rating, Blackgrass (blackgrass; [4]): 2
- Blackgrass plant response rating (blackgrass; [5]): 2
- Blackgrass plant response rating (blackgrass; [6]): 2
- Blackgrass plant response rating (blackgrass; [7]): 0
- Blackgrass plant response rating (blackgrass; [8]): 0
- Wild oats plant response rating (wild oat; [1]): 2
- Plant response rating, Wild oats (wild oat; Preemergence, Rate 62 g/ha): 0
- Plant response rating, Wild oats (wild oat; Preemergence, Rate 125 g/ha): 0
- Wild oats plant response rating (wild oat; [5]): 0
- Wild oats plant response rating (wild oat; [6]): 0
- Wild oats plant response rating (wild oat; [7]): 0
- Wild oats plant response rating (wild oat; [8]): 0
- Velvetleaf plant response rating (velvetleaf; [1]): 0
- Plant response rating, Velvetleaf (velvetleaf; Preemergence, Rate 62 g/ha): 0
- Plant response rating, Velvetleaf (velvetleaf; Preemergence, Rate 125 g/ha): 0
- Velvetleaf plant response rating (velvetleaf; [5]): 0
- Velvetleaf plant response rating (velvetleaf; [6]): 1
- Velvetleaf plant response rating (velvetleaf; [7]): 0
- Velvetleaf plant response rating (velvetleaf; [8]): 0
- Soybean plant response rating (soybean; [1]): 0
- Plant response rating, Soybean (soybean; [4]): 0
- Soybean plant response rating (soybean; [5]): 0
- Soybean plant response rating (soybean; [6]): 0
- Soybean plant response rating (soybean; [7]): 0
- Soybean plant response rating (soybean; [8]): 0
- Plant response rating, S. Flatsedge (0 to 10 scale, 0 is no effect, 10 is complete control) (smallflower flatsedge; [9]): 0
- S. Flatsedge plant response rating (0 to 10 scale, 0 is no effect, 10 is complete control) (smallflower flatsedge; [10]): 0
- S. Flatsedge plant response rating (smallflower flatsedge; [11]): 0
- S. Flatsedge plant response rating (smallflower flatsedge; [12]): 0
- Plant response rating, Ducksalad (0 to 10 scale, 0 is no effect, 10 is complete control) (duck salad; [9]): 0
- Ducksalad plant response rating (0 to 10 scale, 0 is no effect, 10 is complete control) (duck salad; [10]): 0
- Ducksalad plant response rating (duck salad; [11]): 0
- Ducksalad plant response rating (duck salad; [12]): 0
- Corn plant response rating (corn; [1]): 0
- Corn plant response rating (corn; [2]): 0
- Plant response rating, Corn (corn; [3]): 0
- Plant response rating, Corn (corn; [4]): 0
- Corn plant response rating (corn; [5]): 0
- Corn plant response rating (corn; [6]): 0
- Corn plant response rating (corn; [7]): 0
- Corn plant response rating (corn; [8]): 0
- Nutsedge plant response rating (purple nutsedge; [1]): 0
- Plant response rating, Nutsedge (purple nutsedge; [4]): 0
- Nutsedge plant response rating (purple nutsedge; [5]): 0
- Nutsedge plant response rating (purple nutsedge; [6]): 0
- Nutsedge plant response rating (purple nutsedge; [7]): 0
- B. signalgrass plant response rating (surinam grass; Postemergence, Rate 250 g/ha, scale 0 to 10, 0 no effect, 10 complete control): 0
- B. signalgrass plant response rating (surinam grass; [2]): 0
- Plant response rating, B. signalgrass (surinam grass; [3]): 0
- Plant response rating, B. signalgrass (surinam grass; [4]): 0
- B. signalgrass plant response rating (surinam grass; [5]): 0
- B. signalgrass plant response rating (surinam grass; [6]): 2
- B. signalgrass plant response rating (surinam grass; [7]): 0
- B. signalgrass plant response rating (surinam grass; [8]): 0
- Crabgrass plant response rating (crabgrass; [1]): 0
- Crabgrass plant response rating (crabgrass; [2]): 6
- Plant response rating, Crabgrass (crabgrass; [3]): 5
- Plant response rating, Crabgrass (crabgrass; [4]): 6
- Crabgrass plant response rating (crabgrass; [5]): 6
- Crabgrass plant response rating (crabgrass; [6]): 8
- Crabgrass plant response rating (crabgrass; [7]): 0
- Crabgrass plant response rating (crabgrass; [8]): 0
- Cocklebur plant response rating (cocklebur; [1]): 0
- Cocklebur plant response rating (cocklebur; [2]): 5
- Plant response rating, Cocklebur (cocklebur; [3]): 2
- Plant response rating, Cocklebur (cocklebur; [4]): 4
- Cocklebur plant response rating (cocklebur; [5]): 6
- Cocklebur plant response rating (cocklebur; [6]): 6
- Cocklebur plant response rating (cocklebur; [7]): 0
- Cocklebur plant response rating (cocklebur; [8]): 0
- Sugarbeets plant response rating (sugar beet; [1]): 4
- Plant response rating, Sugarbeets (sugar beet; Preemergence, Rate 62 g/ha): 1
- Plant response rating, Sugarbeets (sugar beet; Preemergence, Rate 125 g/ha): 1
- Sugarbeets plant response rating (sugar beet; [5]): 1
- Sugarbeets plant response rating (sugar beet; [6]): 2
- Sugarbeets plant response rating (sugar beet; [7]): 0
- Sugarbeets plant response rating (sugar beet; [8]): 2
